# What was measured:
# CDK7/Cyclin H/MNAT1 = biological target: T1, CDK7/Cyclin H/MNAT1 (Homo sapiens, UniProt P50613); test: Enzymatic assay for CDK7 (FRET based LANCE Ultra kinase assay); format: biochemical; details: for IC50: read-out: CDK7 enzymatic activity (IC50 range)
# T1 construct: purchased Invitrogen PR6749B
# In short: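 Inhibition was measured at Km ATP by time-resolved FRET between a Eu anti-phospho antibody and a phosphorylated ULight peptide. The enzyme was the purified CDK7/cyclin complex, and data were curve-fitted.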
# CDK5/p25 = biological target: T2, CDK5/p25 (Homo sapiens, UniProt Q00535); test: Enzymatic assay for CDK5 (FRET based LANCE Ultra kinase assay); format: biochemical; details: read-out: CDK5 enzymatic activity (IC50 range)
# T2 construct: purchased Invitrogen PR8543B
# T2 sequence (Q00535 whole entry): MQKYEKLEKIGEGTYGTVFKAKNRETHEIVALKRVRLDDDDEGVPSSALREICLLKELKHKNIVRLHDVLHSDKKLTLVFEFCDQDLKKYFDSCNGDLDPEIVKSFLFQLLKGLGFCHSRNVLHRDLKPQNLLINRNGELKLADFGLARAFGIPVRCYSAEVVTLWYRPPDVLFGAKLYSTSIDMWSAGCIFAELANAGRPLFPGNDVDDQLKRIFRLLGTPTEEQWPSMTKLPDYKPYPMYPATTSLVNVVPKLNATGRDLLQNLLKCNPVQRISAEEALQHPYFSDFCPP
# T2 sequence (Q15078 99-307 partner limits assumed): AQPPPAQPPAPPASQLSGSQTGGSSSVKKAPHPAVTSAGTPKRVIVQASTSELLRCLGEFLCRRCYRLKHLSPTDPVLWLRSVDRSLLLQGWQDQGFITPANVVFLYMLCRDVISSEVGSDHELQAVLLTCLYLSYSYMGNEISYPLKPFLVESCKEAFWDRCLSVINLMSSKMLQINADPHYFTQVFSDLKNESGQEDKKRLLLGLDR
# In short: (§1)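 LANCE Ultra TR-FRET: ULight-MBP peptide (68 nM) with ATP at Km, […], 60 min at 23° C. EDTA plus Eu-anti-phospho-MBP added, another 60 min, then 665/615 nm emission read. Compounds tested as 8-dose 4-fold DMSO dilutions.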
# MOLT-4 = test: Cellular MOLT-4 viability assay (CellTiter-Glo, 72 hours); format: cell-based; details: Homo sapiens, MOLT4 viability assay
# Procedure: All cell lines were routinely tested for mycoplasma.
# The effect of the CDK7 inhibitor to inhibit the growth of target cancer cells was evaluated through the 72 hours time period of viability assay. Briefly, the candidate cell line ware plated in 96 well plate at the following density of cells respectively. […] DMSO solvent without compound served as a control and final DMSO concentration less than 0.1%. After 72 hours of incubation at 37° C., 5% CO2 incubator, cells were analyzed for the viability using the CellTiter-Glo Luminescent Cell Viability Assay (Promega, Cat #G7570). All viability assays were performed in duplicate and Luminescence was read using an Envision (Perkin Elmer, USA). Data was analyzed using XLfit software.
# CDK1/Cyclin B = biological target: T3, CDK1/Cyclin B (Homo sapiens, UniProt P06493); test: Enzymatic assay for CDK1 (FRET based LANCE Ultra kinase assay); format: biochemical; details: read-out: CDK1 enzymatic activity (IC50 range)
# T3 construct: purchased Invitrogen PR4768C
# T3 sequence (P06493 whole entry): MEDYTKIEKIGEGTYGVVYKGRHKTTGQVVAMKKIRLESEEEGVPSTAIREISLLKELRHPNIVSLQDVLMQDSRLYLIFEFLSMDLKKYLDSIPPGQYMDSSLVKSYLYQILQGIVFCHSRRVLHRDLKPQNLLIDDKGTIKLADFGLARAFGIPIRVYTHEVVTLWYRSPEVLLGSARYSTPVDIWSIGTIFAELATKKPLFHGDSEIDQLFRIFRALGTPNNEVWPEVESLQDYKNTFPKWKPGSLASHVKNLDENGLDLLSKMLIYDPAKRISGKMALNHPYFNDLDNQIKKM
# T3 sequence (P14635 whole entry partner): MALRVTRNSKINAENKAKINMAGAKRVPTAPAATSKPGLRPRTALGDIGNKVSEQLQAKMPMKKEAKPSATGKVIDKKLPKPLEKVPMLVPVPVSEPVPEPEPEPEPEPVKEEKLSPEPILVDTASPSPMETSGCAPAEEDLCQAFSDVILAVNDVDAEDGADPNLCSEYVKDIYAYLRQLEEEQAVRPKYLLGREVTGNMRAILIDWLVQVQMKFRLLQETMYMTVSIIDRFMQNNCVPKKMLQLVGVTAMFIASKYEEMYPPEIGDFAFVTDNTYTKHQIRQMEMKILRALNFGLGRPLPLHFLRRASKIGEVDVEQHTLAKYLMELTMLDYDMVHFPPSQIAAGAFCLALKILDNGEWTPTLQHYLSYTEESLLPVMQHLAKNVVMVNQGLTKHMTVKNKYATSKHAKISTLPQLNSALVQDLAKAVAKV
# In short: as §1
# CDK2/Cyclin A = biological target: T4, CDK2/Cyclin A (Homo sapiens, UniProt P24941); test: Enzymatic assay for CDK2 (FRET based LANCE Ultra kinase assay); format: biochemical; details: read-out: CDK2 enzymatic activity (IC50 range)
# T4 construct: purchased Invitrogen PV6290
# In short: as §1
# H460 = test: Cellular H460 viability assay (CellTiter-Glo, 72 hours); format: cell-based; details: Homo sapiens, NCI-H460
# In short: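 Luminescent ATP read-out (CellTiter-Glo) after 72 h compound exposure at 37 °C/5% CO2; duplicate wells; vehicle control DMSO <0.1% final; seeding density set per cell line.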
# T1 sequence (P50613 whole entry): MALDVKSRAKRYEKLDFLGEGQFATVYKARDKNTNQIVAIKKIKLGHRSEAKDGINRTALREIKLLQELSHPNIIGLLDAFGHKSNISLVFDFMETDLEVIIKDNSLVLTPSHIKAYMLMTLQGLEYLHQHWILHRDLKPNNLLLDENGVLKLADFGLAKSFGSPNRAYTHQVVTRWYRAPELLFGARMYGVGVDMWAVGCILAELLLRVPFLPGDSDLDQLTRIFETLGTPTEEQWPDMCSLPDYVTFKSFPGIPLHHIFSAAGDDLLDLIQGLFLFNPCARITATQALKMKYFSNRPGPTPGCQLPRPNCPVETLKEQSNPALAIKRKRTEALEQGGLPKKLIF
# T1 sequence (P51946 whole entry partner): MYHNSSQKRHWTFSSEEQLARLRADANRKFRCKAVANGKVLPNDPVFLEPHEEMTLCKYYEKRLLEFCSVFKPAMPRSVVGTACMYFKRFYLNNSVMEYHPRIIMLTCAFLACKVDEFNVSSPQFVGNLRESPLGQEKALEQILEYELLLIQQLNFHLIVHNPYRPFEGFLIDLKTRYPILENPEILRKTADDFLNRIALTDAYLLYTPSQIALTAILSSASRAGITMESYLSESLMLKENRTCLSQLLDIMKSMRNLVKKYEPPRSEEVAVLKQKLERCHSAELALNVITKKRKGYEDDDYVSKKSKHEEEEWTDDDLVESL
# T1 sequence (P51948 whole entry partner): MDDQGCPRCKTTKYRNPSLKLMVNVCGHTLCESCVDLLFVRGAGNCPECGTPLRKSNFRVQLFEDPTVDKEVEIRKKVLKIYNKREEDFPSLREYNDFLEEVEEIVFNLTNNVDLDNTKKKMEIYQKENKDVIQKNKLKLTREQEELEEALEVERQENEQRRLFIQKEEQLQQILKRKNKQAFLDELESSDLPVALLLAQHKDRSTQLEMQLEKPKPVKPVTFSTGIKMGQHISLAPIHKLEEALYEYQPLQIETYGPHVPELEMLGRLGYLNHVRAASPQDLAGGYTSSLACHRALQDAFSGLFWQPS
smiles,measurement,setting,value
CC(C)c1cnn2c(NCc3cccc(Oc4ccc(Cl)c(NC(=O)CCCN(C)C)c4)c3)nc(N3CCC(N)CC3)nc12 [Compound 94],CDK1/CDK7: Selectivity of CDK7 inhibition over CDK1 inhibition,CDK7/Cyclin H/MNAT1,A (A=greater than 200 fold)
same,CDK2/CDK7: Selectivity of CDK7 inhibition over CDK2 inhibition,CDK7/Cyclin H/MNAT1,"B (B=less than 200 fold, but greater than 20 fold)"
same,CDK5/CDK7: Selectivity of CDK7 inhibition over CDK5 inhibition,CDK7/Cyclin H/MNAT1,"B (B=less than 200 fold, but greater than 20 fold)"
same,IC50,CDK7/Cyclin H/MNAT1,< 100 nM
same,IC50,CDK5/p25,100 to 1000 nM
same,IC50,MOLT-4,1 to 10 µM
same,IC50,CDK1/Cyclin B,100 to 1000 nM
same,IC50,CDK2/Cyclin A,100 to 1000 nM
CC(C)c1cnn2c(NCc3ccncc3-n3cccn3)nc(N3CCC(N)CC3)nc12 [Compound 6],IC50,H460,< 1000 nM
same,IC50,MOLT-4,> 10 µM
CC(C)c1cnn2c(NCc3ncccc3-n3cccn3)nc(N3CCC(N)CC3)nc12 [Compound 5],IC50,H460,1000 to 10000 nM
same,IC50,MOLT-4,> 10 µM
CN(C)c1cnn2c(NCc3ccccc3-n3cccn3)nc(N3CCC(N)CC3)nc12 [Compound 60],IC50,H460,< 1000 nM
same,IC50,MOLT-4,> 10 µM
CC(C)c1cnn2c(NCc3ccccc3-n3cccn3)nc(-c3ccc(Cl)c(OC4CCNCC4)c3)nc12 [Compound 173],CDK1/CDK7: Selectivity of CDK7 inhibition over CDK1 inhibition,CDK7/Cyclin H/MNAT1,A (A=greater than 200 fold)
same,CDK2/CDK7: Selectivity of CDK7 inhibition over CDK2 inhibition,CDK7/Cyclin H/MNAT1,"B (B=less than 200 fold, but greater than 20 fold)"
same,CDK5/CDK7: Selectivity of CDK7 inhibition over CDK5 inhibition,CDK7/Cyclin H/MNAT1,"B (B=less than 200 fold, but greater than 20 fold)"
same,IC50,CDK7/Cyclin H/MNAT1,< 100 nM
same,IC50,CDK5/p25,100 to 1000 nM
same,IC50,H460,1000 to 10000 nM
same,IC50,MOLT-4,1 to 10 µM
same,IC50,CDK1/Cyclin B,> 1000 nM
same,IC50,CDK2/Cyclin A,> 1000 nM
CC(C)c1cnn2c(NCc3ccccc3-c3ccc4ccccc4[n+]3[O-])nc(N3CCC(N)CC3)nc12 [Compound 81],CDK1/CDK7: Selectivity of CDK7 inhibition over CDK1 inhibition,CDK7/Cyclin H/MNAT1,A (A=greater than 200 fold)
same,CDK2/CDK7: Selectivity of CDK7 inhibition over CDK2 inhibition,CDK7/Cyclin H/MNAT1,A (A=greater than 200 fold)
same,CDK5/CDK7: Selectivity of CDK7 inhibition over CDK5 inhibition,CDK7/Cyclin H/MNAT1,A (A=greater than 200 fold)
same,IC50,CDK7/Cyclin H/MNAT1,< 100 nM
same,IC50,CDK5/p25,> 1000 nM
same,IC50,MOLT-4,> 10 µM
same,IC50,CDK1/Cyclin B,> 1000 nM
same,IC50,CDK2/Cyclin A,> 1000 nM
CC(C)c1cnn2c(NCc3ccsc3-n3cccn3)nc(N3CCC(N)CC3)nc12 [Compound 62],CDK1/CDK7: Selectivity of CDK7 inhibition over CDK1 inhibition,CDK7/Cyclin H/MNAT1,"B (B=less than 200 fold, but greater than 20 fold)"
same,CDK2/CDK7: Selectivity of CDK7 inhibition over CDK2 inhibition,CDK7/Cyclin H/MNAT1,"B (B=less than 200 fold, but greater than 20 fold)"
same,CDK5/CDK7: Selectivity of CDK7 inhibition over CDK5 inhibition,CDK7/Cyclin H/MNAT1,C (C=less than 20 fold)
same,IC50,CDK7/Cyclin H/MNAT1,< 100 nM
same,IC50,CDK5/p25,< 100 nM
same,IC50,H460,< 1000 nM
same,IC50,MOLT-4,1 to 10 µM
same,IC50,CDK1/Cyclin B,100 to 1000 nM
same,IC50,CDK2/Cyclin A,100 to 1000 nM
CCC(=O)Nc1cccc(Oc2cccc(CNc3nc(N4CCC(N)CC4)nc4c(C(C)C)cnn34)c2)c1 [Compound 86],CDK1/CDK7: Selectivity of CDK7 inhibition over CDK1 inhibition,CDK7/Cyclin H/MNAT1,"B (B=less than 200 fold, but greater than 20 fold)"
same,CDK2/CDK7: Selectivity of CDK7 inhibition over CDK2 inhibition,CDK7/Cyclin H/MNAT1,"B (B=less than 200 fold, but greater than 20 fold)"
same,CDK5/CDK7: Selectivity of CDK7 inhibition over CDK5 inhibition,CDK7/Cyclin H/MNAT1,C (C=less than 20 fold)
same,IC50,CDK7/Cyclin H/MNAT1,< 100 nM
same,IC50,CDK5/p25,< 100 nM
same,IC50,MOLT-4,1 to 10 µM
same,IC50,CDK1/Cyclin B,100 to 1000 nM
same,IC50,CDK2/Cyclin A,100 to 1000 nM
CC(C)c1cnn2c(NCc3cccc4cccnc34)nc(N3CCC(N)CC3)nc12 [Compound 9],CDK1/CDK7: Selectivity of CDK7 inhibition over CDK1 inhibition,CDK7/Cyclin H/MNAT1,"B (B=less than 200 fold, but greater than 20 fold)"
same,CDK2/CDK7: Selectivity of CDK7 inhibition over CDK2 inhibition,CDK7/Cyclin H/MNAT1,"B (B=less than 200 fold, but greater than 20 fold)"
same,CDK5/CDK7: Selectivity of CDK7 inhibition over CDK5 inhibition,CDK7/Cyclin H/MNAT1,C (C=less than 20 fold)
same,IC50,CDK7/Cyclin H/MNAT1,< 100 nM
same,IC50,CDK5/p25,< 100 nM
same,IC50,H460,< 1000 nM
same,IC50,MOLT-4,1 to 10 µM
same,IC50,CDK1/Cyclin B,100 to 1000 nM
same,IC50,CDK2/Cyclin A,100 to 1000 nM
NC1CCN(c2nc(NCc3ccccc3-n3cccn3)n3ncc(I)c3n2)CC1 [Compound 36],CDK1/CDK7: Selectivity of CDK7 inhibition over CDK1 inhibition,CDK7/Cyclin H/MNAT1,"B (B=less than 200 fold, but greater than 20 fold)"
same,CDK2/CDK7: Selectivity of CDK7 inhibition over CDK2 inhibition,CDK7/Cyclin H/MNAT1,C (C=less than 20 fold)
same,CDK5/CDK7: Selectivity of CDK7 inhibition over CDK5 inhibition,CDK7/Cyclin H/MNAT1,C (C=less than 20 fold)
same,IC50,CDK7/Cyclin H/MNAT1,< 100 nM
same,IC50,CDK5/p25,< 100 nM
same,IC50,MOLT-4,1 to 10 µM
same,IC50,CDK1/Cyclin B,100 to 1000 nM
same,IC50,CDK2/Cyclin A,100 to 1000 nM
CC(C)c1cnn2c(NCc3cccc(N4CCN(C)CC4)c3)nc(N3CCC(N)CC3)nc12 [Compound 83],CDK1/CDK7: Selectivity of CDK7 inhibition over CDK1 inhibition,CDK7/Cyclin H/MNAT1,A (A=greater than 200 fold)
same,CDK2/CDK7: Selectivity of CDK7 inhibition over CDK2 inhibition,CDK7/Cyclin H/MNAT1,A (A=greater than 200 fold)
same,CDK5/CDK7: Selectivity of CDK7 inhibition over CDK5 inhibition,CDK7/Cyclin H/MNAT1,"B (B=less than 200 fold, but greater than 20 fold)"
same,IC50,CDK7/Cyclin H/MNAT1,< 100 nM
same,IC50,CDK5/p25,100 to 1000 nM
same,IC50,MOLT-4,1 to 10 µM
same,IC50,CDK1/Cyclin B,> 1000 nM
same,IC50,CDK2/Cyclin A,100 to 1000 nM
CC(C)c1cnn2c(NCc3ccccc3-c3ccco3)nc(N3CCC(N)CC3)nc12 [Compound 45],IC50,H460,< 1000 nM
same,IC50,MOLT-4,1 to 10 µM
CC(C)c1cnn2c(NCc3ccccc3-n3cccn3)nc(Nc3ccc(C4CCNCC4)cn3)nc12 [Compound 169],CDK1/CDK7: Selectivity of CDK7 inhibition over CDK1 inhibition,CDK7/Cyclin H/MNAT1,A (A=greater than 200 fold)
same,CDK2/CDK7: Selectivity of CDK7 inhibition over CDK2 inhibition,CDK7/Cyclin H/MNAT1,"B (B=less than 200 fold, but greater than 20 fold)"
same,CDK5/CDK7: Selectivity of CDK7 inhibition over CDK5 inhibition,CDK7/Cyclin H/MNAT1,"B (B=less than 200 fold, but greater than 20 fold)"
same,IC50,CDK7/Cyclin H/MNAT1,< 100 nM
same,IC50,CDK5/p25,> 1000 nM
same,IC50,MOLT-4,1 to 10 µM
same,IC50,CDK1/Cyclin B,> 1000 nM
same,IC50,CDK2/Cyclin A,> 1000 nM
CC(C)c1cnn2c(NCc3ccccc3Oc3ccc(NC(=O)CCCN(C)C)cc3)nc(N3CCC(N)CC3)nc12 [Compound 91],CDK1/CDK7: Selectivity of CDK7 inhibition over CDK1 inhibition,CDK7/Cyclin H/MNAT1,A (A=greater than 200 fold)
same,CDK2/CDK7: Selectivity of CDK7 inhibition over CDK2 inhibition,CDK7/Cyclin H/MNAT1,"B (B=less than 200 fold, but greater than 20 fold)"
same,CDK5/CDK7: Selectivity of CDK7 inhibition over CDK5 inhibition,CDK7/Cyclin H/MNAT1,"B (B=less than 200 fold, but greater than 20 fold)"
same,IC50,CDK7/Cyclin H/MNAT1,< 100 nM
same,IC50,CDK5/p25,100 to 1000 nM
same,IC50,MOLT-4,1 to 10 µM
same,IC50,CDK1/Cyclin B,100 to 1000 nM
same,IC50,CDK2/Cyclin A,100 to 1000 nM
CC(C)c1cnn2c(NCc3ccccc3-n3ccc4ccccc43)nc(N3CCC(N)CC3)nc12 [Compound 68],IC50,H460,< 1000 nM
same,IC50,MOLT-4,1 to 10 µM
NC1CCN(c2nc(NCc3ccccc3-n3cccn3)n3ncc(C(F)(F)F)c3n2)CC1 [Compound 41],IC50,H460,< 1000 nM
same,IC50,MOLT-4,> 10 µM

# Reference: patent US11945822B2, “Pyrazolo-triazine and/or pyrazolo-pxrimidine derivatives as selective inhibitor of cyclin dependent kinase” (QURIENT CO., LTD., priority 2018, dated 2024)
